Results as given in US10842849B2, “Methods for promoting neuronal outgrowth by insulin-like growth factor binding protein-like 1 (IGFBPL-1) in glaucoma or leber's optic neuropathy” (The Schepens Eye Research Institute, Inc., priority 2011, dated 2020).
“Also recorded” adds a separate entry of the source.

B1: IGFBPL-1: insulin-like growth factor binding protein-like 1 protein; mouse recombinant IGFBPL-1 used in tests (protein)
chain: LGLRDAGRRHPECSPCQQDRCPAPSPCPAPWISARDECGCCARCLGAEGASCGGPVGSRCGPGLVCASRASGTAPEGTGLCVCAQRGAVCGSDGRSYSSICALRLRARHAPRAHHGHLHKARDGPCEFAPVVLMPPRDIHNVTGTQVFLSCEVKAVPTPVITWKKVKHSPEGTEGLEELPGDHVNIAVQVRGGPSDHETTSWILINPLRKEDEGVYHCHAANAIGEAQSHGTVTVLDLNRYKSLYSSVPGDLL

Legend:
[1] = system: Retinal ganglion cells (RGCs) isolated from P0 mice; assay: P0 RGC culture: neurite outgrowth and survival; type: cell-based, mouse; settings: for effect on IGFBPL-1 induced neurite/axon growth: P0 RGC cultures treated with IGFBPL-1 plus inhibitor or neutralizing antibody; for RGC neurite outgrowth / axonal extension: P0 RGC cultures, 3 days, beta-III-tubulin/Tuj1 immunostaining; for RGC cell survival: P0 RGCs
From the text: The experiments described herein were aimed to elucidate the functional role and mechanisms of IGFBPL-1 on RGC survival and axon extension in mice. The expression pattern of IGFBPL-1 in the developing retina was examined in retinas at different developmental stage, ranging from embryonic day 16 through adult, using immunohistochemistry, western blot and quantitative RT-PCR. Retinal ganglion cells were purified using magnetic beads conjugated with Thy1.2 antibody from new born mouse pups at postnatal day 0 (P0), and cultured for up to five days in the presence or absence of IGFBPL-1 and/or IGF-I proteins. RGC survival and axonal growth were evaluated after three days in culture following LIVE/DEAD® and β-III-tubulin immunostaining. Lentiviral shRNAs were used to knockdown the expression of IGFBPL-1 and/or IGF-I in culture. The functional role of IGFBPL-1 in RGC development was further evaluated in IGFBPL-1 knockout (KO) mouse. RGC morphology and number were recorded using retinal vertical sections or whole-mount preparation. The number of axons in the optic nerve head was counted under electron microscopy. Data collected from the IGFBPL-1 KO mice were compared with that obtained from age-matched wildtype C57BL/6 littermates.
RGC neurite outgrowth in the absence (FIG. 3A) and presence (FIG. 3B) of IGFBPL-1 promotes in RGC cell culture. Retinal ganglion cells (RGCs) isolated from P0 mice were cultured in the absence (control) and presence of IGFBPL-1 (IGFBPL-1) for 3 days and were immunolabeled with primary antibody against a RGC specific marker Tuj1 (red). Note that RGCs extend long neurite in IGFBPL-1-treated cultures as compared to control culture group.

mTOR = assay: P10 retina incubation, western blot of phosphorylated mTOR; type: cell-based, mouse; settings: P10 retinas incubated 30 min or 6 hours at 37° C.
Description: (§1) P10 retinas were dissected and incubated with IGF-I, IGFBPL1 and IGF-I+IGFBPL1 for 30 min or 6 hours at 37° C. Retina lysates were prepared for western blotting, using antibodies against IGF-1-mediated downstream signals, mTOR and Akt.

[2] = system: cultured RGCs derived from P10 mice; assay: P10 RGC culture: axon length and survival; type: cell-based, mouse; settings: for axon length / neurite outgrowth: treated 3 days
Description: Cells were treated with control, IGF-I, IGFBPL1 or both for 3 days and were immunostained with βIII-tubulin to reveal axons.

Akt = assay: P10 retina incubation, western blot of phosphorylated Akt; type: cell-based, mouse; settings: P10 retinas incubated 30 min or 6 hours at 37° C.
Description: as §1

[3] = system: RGC axons after optic nerve crush; assay: Optic nerve regeneration in vivo after optic nerve crush; settings: intravitreous delivery, optic nerve crush in mice
From the text: IGF-1 ([…]). IGFBPL-1 (n=7). IGF1+IGFBPL1 (n=6).

hippocampal neurons = assay: Hippocampal neuronal cultures: neurite outgrowth; type: cell-based; settings: beta III tubulin staining
From the text: FIG. 9B are histograms showing quantification of neurite outgrowth in control; and neurons exposed to IGFBPL-1; IGF-1; IGFBPL-1+IGF-1; IGFBPL-1+H1356; IGFBPL-1+Neut. Ab; IGFBPL-1+IGFI-1+Neut. Ab.

IGF-1 = IGF-1 (Mus musculus, UniProt P05017); assay: Co-immunoprecipitation of IGFBPL-1 and IGF-1 (western blot); type: binding; settings: mouse recombinant proteins and retina lysates
From the text: FIGS. 5(I) A and B and FIGS. 5 (II) A and B are western blots showing binding of IGFBP-1 with IGF-I using mouse recombinant IGFBPL-1 and IGF-1 (FIG. 5(I)) and retina lysates (FIG. 5(II)).

Chain of IGF-1 (P05017 1-118 limits assumed): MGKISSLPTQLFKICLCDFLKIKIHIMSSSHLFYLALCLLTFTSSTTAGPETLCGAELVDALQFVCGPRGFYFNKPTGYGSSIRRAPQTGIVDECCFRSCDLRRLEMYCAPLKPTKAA

Row | Molecule | effect on IGFBPL-1 induced neurite/axon growth [1] | effect on IGFBPL-1 induced neurite/axon growth ([1]; listed as inhibitor of IGF-I and IGFBP binding) | phosphorylation of mTOR (mTOR) | RGC survival [2] | axon length / neurite outgrowth [2] | phosphorylation of Akt (Akt) | RGC neurite outgrowth / axonal extension [1] | RGC neurite outgrowth / axonal extension ([1]; listed as IGF-I) | RGC cell survival [1] | RGC neurite outgrowth / axonal extension ([1]; listed as IGFBPL1) | regeneration of RGC axons [3] | neurite growth in hippocampal neuronal cultures (hippocampal neurons) | binding / interaction with IGF-1 (IGF-1)
1 | O=C(O)c1cc2cc(O)c(O)cc2c(C(=O)c2ccc(O)c(O)c2)n1 [NBI-31772, reference compound] | abolishes the neurite growth effect of IGFBPL-1 | abolishes the growth promoting activity of IGFBPL1 |  |  |  |  |  |  |  |  |  |  | 
2 | IGF-1: Insulin Growth Factor 1 protein |  |  | increased level of phosphorylated mTOR and Akt | affect the survival | does not promote neurite outgrowth | increased level of phosphorylated mTOR and Akt | robust neurite outgrowth | promotes both neurite outgrowth and cell survival | promotes both neurite outgrowth and cell survival |  |  |  | 
3 | B1 |  |  | prolongs the phosphorylation | affect the survival | does not promote neurite outgrowth |  | significantly promoted axonal extension; also recorded: promotes RGC neurite outgrowth; also recorded: stimulates neurite outgrowth; also recorded: robust neurite outgrowth |  | promotes both neurite outgrowth and cell survival | promotes both neurite outgrowth and cell survival | significantly promotes the regeneration of RGC axons | induced neurite growth | directly interacts with IGF-1
